ChEMBL document CHEMBL1201862, “PubChem BioAssay data set” (2004)
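All cell lines were grown in 96-well plates and treated with compound for 48 hours. Here, GI50 denotes the concentration required for 50% inhibition of growth.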 Activity calls are given as the source filed them. Cut-off read from the data, not from the text of the source: active = GI50 up to about 1.1 µM and inactive = higher.

What was measured:
Assay in all cases: growth of human tumour cells (NCI), 48 h
DU-145 = tested on: DU-145
EKVX = tested on: EKVX
HT-29 = tested on: HT-29
K562 = tested on: K562
KM12 = tested on: KM12
MDA-MB-435 = tested on: MDA-MB-435
MOLT-4 = tested on: MOLT-4
NCI-H23 = tested on: NCI-H23
OVCAR-3 = tested on: OVCAR-3
OVCAR-4 = tested on: OVCAR-4
OVCAR-5 = tested on: OVCAR-5
PC-3 = tested on: PC-3
SF-295 = tested on: SF-295
SNB-19 = tested on: SNB-19
U-251 = tested on: U-251
UACC-62 = tested on: UACC-62
UO-31 = tested on: UO-31
SF-539 = tested on: SF-539
NCI-H460 = tested on: NCI-H460

Structure (SMILES) | GI50 (DU-145) | GI50 (EKVX) | GI50 (HT-29) | GI50 (K562) | GI50 (KM12) | GI50 (MDA-MB-435) | GI50 (MOLT-4) | GI50 (NCI-H23) | GI50 (OVCAR-3) | GI50 (OVCAR-4) | GI50 (OVCAR-5) | GI50 (PC-3) | GI50 (SF-295) | GI50 (SNB-19) | GI50 (U-251) | GI50 (UACC-62) | GI50 (UO-31) | GI50 (SF-539) | GI50 (NCI-H460)
Cc1cn2c(/C=C3/C(=O)Nc4cccc(Cl)c43)c(Cl)nc2s1 | > 100 µM (inactive) | 55.8 µM (inactive) | > 100 µM (inactive) | > 100 µM (inactive) | > 100 µM (inactive) | > 100 µM (inactive) | > 100 µM (inactive) | 25.8 µM (inactive) | 61.9 µM (inactive) | > 100 µM (inactive) | > 100 µM (inactive) | > 100 µM (inactive) | 36.3 µM (inactive) | 40.4 µM (inactive) | 5.26 µM (inactive) | 19.6 µM (inactive) | > 100 µM (inactive) |  | 
C[C@H](c1ccccc1)N1C(=O)[C@@H](O)[C@H]1[C@H](CO)OCc1ccccc1 | > 100 µM (inactive) | > 100 µM (inactive) | > 100 µM (inactive) | > 100 µM (inactive) | > 100 µM (inactive) | > 100 µM (inactive) | > 100 µM (inactive) | > 100 µM (inactive) | > 100 µM (inactive) | > 100 µM (inactive) | > 100 µM (inactive) | > 100 µM (inactive) | 95.3 µM (inactive) | > 100 µM (inactive) | > 100 µM (inactive) | > 100 µM (inactive) | > 100 µM (inactive) |  | 
Cc1ccc(N2C(N)=C(C#N)C(C#N)(C#N)C2c2ccccc2)cc1 (stereo not drawn) | 14.9 µM (inactive) | 18 µM (inactive) | 3.97 µM (inactive) |  | 17.2 µM (inactive) | 4.03 µM (inactive) | 2.31 µM (inactive) | 18.1 µM (inactive) | 13.7 µM (inactive) | 13.4 µM (inactive) | 15.5 µM (inactive) | 18.8 µM (inactive) | 18.9 µM (inactive) | 17.5 µM (inactive) | 17.3 µM (inactive) | 11.4 µM (inactive) | 15.8 µM (inactive) | 14.2 µM (inactive) | 
Cc1cccc2c1Oc1ccccc1C2NC(=O)c1ccc([N+](=O)[O-])cc1 (stereo not drawn) | 21 µM (inactive) | > 100 µM (inactive) | > 100 µM (inactive) | > 100 µM (inactive) | > 100 µM (inactive) |  | > 100 µM (inactive) | > 100 µM (inactive) | 99.3 µM (inactive) | 32.2 µM (inactive) | > 100 µM (inactive) | > 100 µM (inactive) | > 100 µM (inactive) | > 100 µM (inactive) | 57.8 µM (inactive) | > 100 µM (inactive) | > 100 µM (inactive) |  | > 100 µM (inactive)
COC(=O)c1cc(C)ccc1/C=C1\Cc2cc(C)c(C)cc2C1=O | > 100 µM (inactive) | > 100 µM (inactive) | > 100 µM (inactive) | 89.3 µM (inactive) | > 100 µM (inactive) |  | 33.1 µM (inactive) | > 100 µM (inactive) | 51.1 µM (inactive) | > 100 µM (inactive) | > 100 µM (inactive) | > 100 µM (inactive) | 38.7 µM (inactive) | 29.9 µM (inactive) |  | 27.8 µM (inactive) | > 100 µM (inactive) | > 100 µM (inactive) | > 100 µM (inactive)
c1cncc(-c2ncc3cccnc3n2)c1 | 43.4 µM (inactive) | > 100 µM (inactive) | > 100 µM (inactive) | > 100 µM (inactive) | > 100 µM (inactive) |  | > 100 µM (inactive) | > 100 µM (inactive) | > 100 µM (inactive) | > 100 µM (inactive) | > 100 µM (inactive) | > 100 µM (inactive) | > 100 µM (inactive) | > 100 µM (inactive) | > 100 µM (inactive) | > 100 µM (inactive) | > 100 µM (inactive) | > 100 µM (inactive) | > 100 µM (inactive)
CN1C(=O)C2C3C=C4c5ccccc5N(c5ccccc5)C4(C2C1=O)[C@H]1C(=O)N(C)C(=O)[C@@H]31 (stereo partly drawn) |  | > 100 µM (inactive) | > 100 µM (inactive) | > 100 µM (inactive) | > 100 µM (inactive) |  | > 100 µM (inactive) | > 100 µM (inactive) | > 100 µM (inactive) | > 100 µM (inactive) | > 100 µM (inactive) |  | > 100 µM (inactive) | > 100 µM (inactive) | > 100 µM (inactive) | > 100 µM (inactive) | > 100 µM (inactive) |  | > 100 µM (inactive)
O=C(O)c1cc2ccc3ccccc3c2oc1=O |  | 31.3 µM (inactive) | > 100 µM (inactive) | > 100 µM (inactive) | > 100 µM (inactive) | > 100 µM (inactive) | > 100 µM (inactive) | > 100 µM (inactive) | > 100 µM (inactive) | > 100 µM (inactive) | > 100 µM (inactive) | > 100 µM (inactive) | > 100 µM (inactive) | > 100 µM (inactive) | > 100 µM (inactive) | > 100 µM (inactive) | > 100 µM (inactive) | > 100 µM (inactive) | > 100 µM (inactive)
CCOC(=O)[C@@H]1ON2O[C@H](OC3CCCCC3c3ccccc3)C[C@H]3OC(=O)[C@@H]1C32 (stereo partly drawn) | > 100 µM (inactive) | > 100 µM (inactive) | > 100 µM (inactive) | > 100 µM (inactive) | 80 µM (inactive) | > 100 µM (inactive) | > 100 µM (inactive) | 27 µM (inactive) | > 100 µM (inactive) |  | > 100 µM (inactive) |  | > 100 µM (inactive) |  | > 100 µM (inactive) | > 100 µM (inactive) | > 100 µM (inactive) | > 100 µM (inactive) | 39.8 µM (inactive)
Cn1nc(-c2ccccc2)c(C(=O)/C=C/c2ccc(Cl)cc2)c(N2CCOCC2)c1=O |  | 8.49 µM (inactive) | 1.83 µM (inactive) | 2.79 µM (inactive) |  |  | 0.752 µM (active) | 2.74 µM (inactive) |  |  |  |  | 0.412 µM (active) | 14.3 µM (inactive) | 3.37 µM (inactive) | 3.27 µM (inactive) | 9.71 µM (inactive) | 2.5 µM (inactive) | 2.64 µM (inactive)
CC1(C)C(CCO)CC1n1ccc(=O)[nH]c1=O (stereo not drawn) | > 100 µM (inactive) | > 100 µM (inactive) |  | 10.6 µM (inactive) | > 100 µM (inactive) | > 100 µM (inactive) |  |  | > 100 µM (inactive) | > 100 µM (inactive) | > 100 µM (inactive) | > 100 µM (inactive) | > 100 µM (inactive) | > 100 µM (inactive) | > 100 µM (inactive) | > 100 µM (inactive) | > 100 µM (inactive) | > 100 µM (inactive) | 
CC(N)Cc1ccc(C(=O)Cl)cc1 (stereo not drawn) |  | > 100 µM (inactive) | > 100 µM (inactive) | > 100 µM (inactive) | > 100 µM (inactive) |  | > 100 µM (inactive) | > 100 µM (inactive) | > 100 µM (inactive) | > 100 µM (inactive) |  |  | > 100 µM (inactive) |  | > 100 µM (inactive) | > 100 µM (inactive) |  | > 100 µM (inactive) | > 100 µM (inactive)
O=C1C(=c2cc3c(c4ccccc24)=NC24CCCCC2C(c2ccccc2)C=C(c2ccccc2)N34)C(=O)c2ccccc21 (stereo not drawn) | 57.3 µM (inactive) | 12.7 µM (inactive) | 53 µM (inactive) | 23 µM (inactive) | 30.4 µM (inactive) | 22 µM (inactive) | 16.6 µM (inactive) |  | 22 µM (inactive) | 15.5 µM (inactive) | > 100 µM (inactive) | 25.8 µM (inactive) | > 100 µM (inactive) | 45.2 µM (inactive) | 36.8 µM (inactive) |  | 22.9 µM (inactive) | 41.1 µM (inactive) | 
NNC(=O)c1ccc[n+](CCc2ccccc2)c1 | > 100 µM (inactive) | > 100 µM (inactive) | > 100 µM (inactive) | > 100 µM (inactive) | > 100 µM (inactive) | > 100 µM (inactive) | > 100 µM (inactive) | > 100 µM (inactive) | > 100 µM (inactive) | > 100 µM (inactive) | > 100 µM (inactive) | > 100 µM (inactive) | > 100 µM (inactive) | > 100 µM (inactive) | > 100 µM (inactive) | > 100 µM (inactive) | > 100 µM (inactive) |  | > 100 µM (inactive)
N=C(N)/N=C(\N)Nc1cnccn1 | > 100 µM (inactive) | > 100 µM (inactive) | > 100 µM (inactive) | > 100 µM (inactive) | > 100 µM (inactive) | > 100 µM (inactive) | > 100 µM (inactive) | > 100 µM (inactive) | > 100 µM (inactive) | > 100 µM (inactive) |  | > 100 µM (inactive) | > 100 µM (inactive) | > 100 µM (inactive) | > 100 µM (inactive) | > 100 µM (inactive) | > 100 µM (inactive) | > 100 µM (inactive) | 
O=C1Nc2ccccc2C1Cc1ccc([N+](=O)[O-])cc1 (stereo not drawn) | > 100 µM (inactive) | > 100 µM (inactive) | > 100 µM (inactive) | > 100 µM (inactive) | 36.2 µM (inactive) | > 100 µM (inactive) | 14.1 µM (inactive) | > 100 µM (inactive) | > 100 µM (inactive) | 84.5 µM (inactive) | > 100 µM (inactive) | 74 µM (inactive) | > 100 µM (inactive) | > 100 µM (inactive) | > 100 µM (inactive) | > 100 µM (inactive) | > 100 µM (inactive) |  | > 100 µM (inactive)
COC(=O)C1=C(C(=O)OC)C(C(=O)c2ccc(Br)cc2)N2N=C(c3ccc(Cl)cc3)C=CC12 (stereo not drawn) | > 100 µM (inactive) | > 100 µM (inactive) |  | > 100 µM (inactive) | 14.5 µM (inactive) | > 100 µM (inactive) | > 100 µM (inactive) | > 100 µM (inactive) | > 100 µM (inactive) | > 100 µM (inactive) | > 100 µM (inactive) | 80.4 µM (inactive) | 67 µM (inactive) | > 100 µM (inactive) | > 100 µM (inactive) | 25.2 µM (inactive) | > 100 µM (inactive) |  | > 100 µM (inactive)
